We go through seven molecules from patent US6031135A, “Trimethylsphingosine derivatives” (Oncomembrane, Inc., priority 1996, dated 2000).

One series concerns B16BL6 melanoma cells. The series is described as follows: metastasis of B16BL6 melanoma cells (lung metastatic deposits in mice). The format is in vivo, mouse. Also noted: key to Inhibition of metastasis: +: effective; -: not effective. On the procedure:
BL6 cells were injected into mice and metastatic deposits in the lung were assessed after various treatments including route and timing, of administration.

A further series concerns platelets. The series is described as follows: platelet aggregation (aggregometer, thrombin or ADP). More on the design: key to Inhiition of PA: +: effective; -: not effective. Format: cell-based. On the procedure: Platelets were isolated from platelet-rich plasma (purchased from the Oregon Red Cross, Portland, Oreg.). Contaminating erythrocytes were removed by centrifugation (80×g for 10 minutes). Platelets were obtained by centrifugation (300×g for 10 minutes), washed once in Tyrode buffer (pH 6.5) containing 22 mM trisodium citrate and 0.35% (w/v) BSA and resuspended in the same buffer to obtain a concentration of 1-2×10^9 platelets/ml. All procedures were performed at room temperature.
A suspension of platelets (about 3.5×10^8 /ml) in Tyrode buffer was preincubated with inhibitor compounds (H-7 [1-(5-isoquinolinylsulfonyl)-2-methylpiperazine, a synthetic protein kinase-C inhibitor purchased from Seikagaku America Inc., St. Petersburg, Fla.], Calphostin-C [a synthetic protein kinase-C inhibitor obtained from Dr. Saitoh, Kyowa Hakko Co., Ltd., Machida, Tokyo, Japan], sphingosine [purchased from Sigma, St. Louis, Mo.] and dimethylsphingosine and trimethylsphingosine [synthesized according to Igarashi et al., Biochem., 28, 6796, 1989]) followed by addition of thrombin or ADP (both purchased from Sigma). Platelet aggregation was evaluated by transmittance change using an aggregometer (Chrono-log Corp., Havertown, Pa.) equipped with a computer analyzer.

Series [1] concerns PK-C. As to the kind of experiment: PK-C activity bioassay (histone III-S or myelin basic protein substrate). The format is biochemical, human (A431 cells) or mouse brain. More on the design: key: +: effective; -: not effective. On the procedure:
In another in vitro assay, the influence of various compounds on PK-C activity was monitored. Certain tumor cells present high levels of PK-C activity. The human epidermoid carcinoma cell line A-431 (ATCC No. CRL 1555) was used in a bioassay for PK-C activity as described in Igarashi et al. (supra). Briefly, phosphatidylserine (5 μg/tube) and 1,2-diolein (0.05 μg/tube), with or without an appropriate quantity of a sphingosine derivative sample, were added in an organic solvent, ethanol or ethanol/chloroform, to a 1.5 ml tube (Sarstedt) and the mixture was evaporated under a N2 stream. The lipid mixture was sonicated in about 30 μl of 20 mM Tris-HCl (pH 7.5) for 30 minutes.
The resulting liposomes were supplemented with a buffer mixture comprising 25 mM Tris-HCl (pH 7.5), 10 mM MgCl2, […], 50 μM EGTA, 500 μM CaCl2, […] histone III-S or myelin basic protein and 20 μM γ[^32 P]-ATP (2×10^6 cpm) to a final volume of about 90 μl. […]
The precipitate was collected by centrifugation, washed twice with 1 ml of 25% TCA, then dissolved in 1 ml of 1 M NaOH containing 0.1% deoxycholate with slight heating (80° C. for ten minutes) and counted in a scintillation counter. […]

A further series in a line: water solubility. Format: physicochemical. To be noted: particularly at physiologic pH.
The subject of another series is HL60 cells. As to the kind of experiment: HL60 adhesion on activated platelet-coated solid phase. Format: cell-based, human. To be noted: thrombin-stimulated and PMA-stimulated platelets. On the procedure:
HL60 (a human promylelocytic cell line available from the ATCC under accession number CCL 240) adhesion on resting or activated platelet-coatedsolid phase was evaluated as follows. Each well of a 48-well plate (Costar Scientific, Cambridge, Mass.) was filled with a poly-L-lysine solution (100 μg/ml in PBS) and incubated for 1 hour. Each well then was washed with PBS and then 150 μl of PBS containing 6×10^7 resting or activated platelets were added to each well and the plate was incubated for 1 hour. Plates were centrifuged (300×g for 7 minutes) and incubated a further 30 minutes at room temperature. Bound platelets were fixed by addition of 0.1% (w/v) glutaraldehyde in PBS for 2 minutes at 4° C. Each well was washed with 10 mM glycine in PBS and plates were incubated with 5% (w/v) BSA containing 0.1% (w/v) sodium azide, 10 mM glycine in PBS for 1 hour at room temperature.

The test system of series [2] is 47 kDa and 65 kDa proteins. As to the kind of experiment: PMA-stimulated protein phosphorylation in 32P-labeled neutrophils. The format is cell-based, human. To be noted: neutrophils pre-incubated with 15-45 μM, then 1.5 μM PMA. On the procedure:
Excess unbound components were removed by centrifugation and the pellets were resuspended in the same buffer, repeating twice. The cells then were divided into 7 treatment groups, each containing ≈1×10^7 cells in a total volume of 0.4 ml. TMS, SPN or DMS was added to a suspension and incubated at 37° C. for 10 min, followed by addition of PMA to a final concentration of 1.5 μM. Two minutes later, the reaction was terminated by adding 0.1 ml of Laemmli sample buffer and 20 mM EDTA, followed by heating at 100° C. for 5 min. Aliquots were separated through 10% sodium dodecyl sulfate gels using known procedures. ^32 P incorporation was visualized by autoradiography.

The test system of series [3] is PK-C. To be noted: literature (Hannun & Bell; Merrill & Stevens); cited from earlier work.
Where [4] appears, read: Preincubation with free derivative.

`CCCCCCCCCCCCCC#CC(O)C(CO)[N+](C)(C)C` (stereo not shown) [4-alkyn-TMS]: the Inhibition of metastasis entry in the series on B16BL6 melanoma cells (B16BL6 melanoma cells, no readable footnote on the cell) was “+”.

In the case of `C[N+](C)(C)[C@@H](CO)[C@H](O)/C=C/CCCCCCCCCCCCC(=O)O` [Carboxy TMS], in the series on B16BL6 melanoma cells (setting [4]), the Inhibition of metastasis result is given as “-”. Also, the “Inhiition of PA” value in the series with platelets is “-”. The PKC inhibition result with PK-C [1] is “-”.

Regarding `CCCCCCCCCCCCCCCC(O)C(CO)[N+](C)(C)C` (stereo not shown) [DHTMS], the Inhibition of metastasis result in the series with B16BL6 melanoma cells (Experimental and spontaneous metastasis with liposomal formulation) is recorded as “+”.

`CCCCCCCCCCCCC/C=C/C(O)C(CO)N(C)C` (stereo not shown) [DMS, N,N-dimethylsphingosine]: in “water solubility”, the water solubility result is on record as “less water soluble”. For the same molecule, in the series on HL60 cells, the HL60 cell binding entry is reported as “inhibited strongly”. Moreover, in series [2], the “phosphorylation of 47 kDa and 65 kDa proteins” value is “diminished significantly”.

For `CCCCCCCCCCCCC/C=C/C(O)C(CO)NC` (stereo not shown) [MMS, N-monomethylsphingosine], the water solubility result in the series “water solubility” is on record as “less water soluble”.

As for `COC(=O)CCCCCCCCCCCC/C=C/[C@@H](O)[C@H](CO)[N+](C)(C)C` [Methylcarboxy TMS], in the series on B16BL6 melanoma cells (setting [4]), the Inhibition of metastasis entry is “-”. In addition, the “Inhiition of PA” value with platelets is “-”. The PKC inhibition result in the series with PK-C [1] is recorded as “-”.

As for `CCCCCCCCCCCCC/C=C/[C@@H](O)[C@@H](N)CO` [sphingosine, Sphingosine], the water solubility result in “water solubility” is listed as “less water soluble”. Besides, in the series with HL60 cells, the HL60 cell binding entry is reported as “minimally inhibited”. The “phosphorylation of 47 kDa and 65 kDa proteins” value in series [2] is “diminished significantly”. Also, the PK-C activity entry in the series with PK-C [3] is listed as “inhibited”.
